Series [1] is described as follows: Cell viability assay (MTT) on normal MCF-10A cells. The class given is cell-based. Conditions: human, MCF-10A mammary gland epithelial cells (normal cell line), MCF-10A normal cells, four-day incubation. The procedure:
The impact of novel compounds 10a–l on the viability of a normal human cell line, specifically human mammary gland epithelial cells (MCF-10A), was assessed to ascertain the safety of the newly synthesized compounds. The MTT test was employed to assess the cell viability of the novel compounds after a four-day incubation with MCF-10A cells.[29,37] Refer to Appendix A for more experimental details.
The effect of new compounds 10a–l on the viability of a normal human cell line, namely human mammary gland epithelial cells (MCF-10A), was evaluated to determine the safety of the newly synthesized compounds.
4.2. Biological evaluation
4.2.1 Cell Viability assay (MTT assay)
MTT assay was performed to investigate the effect of the synthesized compounds on mammary epithelial cells (MCF-10A). The cells were propagated in medium consisting of Ham's F-12 medium/ Dulbecco's modified Eagle's medium (DMEM) (1:1) supplemented with 10% foetal calf serum, 2 mM glutamine, insulin (10 μg/mL), hydrocortisone (500 ng/mL) and epidermal growth factor (20 ng/mL). Trypsin ethylenediamine tetra acetic acid (EDTA) was used to passage the cells after every 2-3 days. 96-well flat-bottomed cell culture plates were used to seed the cells at a density of 10^4 cells mL-1. The medium was aspirated from all the wells of culture plates after 24 h followed by the addition of synthesized compounds (in 200 μL medium to yield a final concentration of 0.1% (v/v) dimethyl sulfoxide) into individual wells of the plates. Four wells were designated to a single compound. The plates were allowed to incubate at 37°C for 96 h. Afterwards, the medium was aspirated and 3-[4,5-dimethylthiazol-2-yl]-2,5-diphenyltetrazolium bromide (MTT) (0.4 mg/mL) in medium was added to each well and subsequently incubated for 3 h. The medium was aspirated and 150 μL dimethyl sulfoxide (DMSO) was added to each well. The plates were vortexed followed by the measurement of absorbance at 540 nm on a microplate reader. […]

The subject of a further series is MCF-7 (breast cancer). In words: Antiproliferative assay, MCF-7. Conditions: for IC50: Homo sapiens, MCF7, MCF-7 breast cancer cells, read-out: Antiproliferative activity IC50 ± SEM, MCF-7. It is filed as cell-based, human. An excerpt: The dose–response experiments established the IC50 values for the new compounds. The given findings were obtained from at least two distinct studies, each comprising three repeats per concentration. Appendix A (SI File) provides experimental details.[38,39]
The MTT assay[43] was utilized to assess the antiproliferative effects of compounds 10a–l on four human cancer cell lines: HT-29 (colon cancer), Panc-1 (pancreatic cancer), A-549 (lung cancer), and MCF-7 (breast cancer). […]
4.2.2. Assay for antiproliferative effect
To explore the antiproliferative potential of compounds propidium iodide fluorescence assay was performed using different cell lines such as Panc-1 (pancreas cancer cell line), MCF-7 (breast cancer cell line), HT-29 (colon cancer cell line) and A-549 (epithelial cancer cell line), respectively. To calculate the total nuclear DNA, a fluorescent dye (propidium iodide, PI) is used which can attach to the DNA, thus offering a quick and precise technique. PI cannot pass through the cell membrane and its signal intensity can be considered as directly proportional to quantity of cellular DNA. Cells whose cell membranes are damaged or have changed permeability are counted as dead ones. The assay was performed by seeding the cells of different cell lines at a density of 3000-7500 cells/well (in 200μl medium) in culture plates followed by incubation for 24h at 37 °C in humidified 5%CO2/95% air atmospheric conditions. The medium was removed; the compounds were added to the plates at 10 μM concentrations (in 0.1% DMSO) in triplicates, followed by incubation for 48h. DMSO (0.1%) was used as control. After incubation, medium was removed followed by the addition of PI (25 μl, 50μg/mL in water/medium) to each well of the plates. At - 80 °C, the plates were allowed to freeze for 24 h, followed by thawing at 25 °C. A fluorometer (Polar-Star BMG Tech) was used to record the readings at excitation and emission wavelengths of 530 and 620 nm for each well. The percentage cytotoxicity of compounds was calculated using […]
Where ATC= Absorbance of treated cells and AC= Absorbance of control. Erlotinib was used as positive control in the assay. […]

The next series concerns caspase-3. Nature of the series: Caspase-3 activation assay in MCF-7 cells. Conditions: for Caspase-3 Fold change: vs untreated control. It is filed as cell-based, human.
For another series, the system named is p53. In words: p53 level assay in MCF-7 cells. The class given is cell-based, human. The procedure:
Compounds10k and 10l were tested as caspases-3, 8, 9, Bax and p53 activators and as down-regulators of the anti-apoptotic protein Bcl2 against the MCF-7 breast cancer cell line.[41] Appendix A gives more details.
P53's ability to eliminate superfluous, damaged, or contaminated cells by apoptosis is critical for the proper regulation of cell proliferation in multicellular organisms.[49] p53 is activated by both external and internal stress signals, allowing for nuclear accumulation in an active state. As a result, p53 induces either reversible cell growth arrest or apoptosis. The aforesaid activity is necessary for tumor suppression.[50]

A further series has as its target VEGFR-2 (Homo sapiens, UniProt P35968). In words: VEGFR-2 inhibitory assay.

Where “and” joins values, the source holds several entries; their conditions need not be identical. Equal entries are not always repeated.

These results are taken from paper PMC12530851, “Design, synthesis, and apoptotic antiproliferative activity of novel dihydropyrimidine-5-carbonitrile/1,2,4-oxadiazole hybrids as dual EGFR/VEGFR-2 inhibitors endowed with antioxidant activity” (RSC Advances, 2025).

VEGFR-2, sequence (P35968 20-1356): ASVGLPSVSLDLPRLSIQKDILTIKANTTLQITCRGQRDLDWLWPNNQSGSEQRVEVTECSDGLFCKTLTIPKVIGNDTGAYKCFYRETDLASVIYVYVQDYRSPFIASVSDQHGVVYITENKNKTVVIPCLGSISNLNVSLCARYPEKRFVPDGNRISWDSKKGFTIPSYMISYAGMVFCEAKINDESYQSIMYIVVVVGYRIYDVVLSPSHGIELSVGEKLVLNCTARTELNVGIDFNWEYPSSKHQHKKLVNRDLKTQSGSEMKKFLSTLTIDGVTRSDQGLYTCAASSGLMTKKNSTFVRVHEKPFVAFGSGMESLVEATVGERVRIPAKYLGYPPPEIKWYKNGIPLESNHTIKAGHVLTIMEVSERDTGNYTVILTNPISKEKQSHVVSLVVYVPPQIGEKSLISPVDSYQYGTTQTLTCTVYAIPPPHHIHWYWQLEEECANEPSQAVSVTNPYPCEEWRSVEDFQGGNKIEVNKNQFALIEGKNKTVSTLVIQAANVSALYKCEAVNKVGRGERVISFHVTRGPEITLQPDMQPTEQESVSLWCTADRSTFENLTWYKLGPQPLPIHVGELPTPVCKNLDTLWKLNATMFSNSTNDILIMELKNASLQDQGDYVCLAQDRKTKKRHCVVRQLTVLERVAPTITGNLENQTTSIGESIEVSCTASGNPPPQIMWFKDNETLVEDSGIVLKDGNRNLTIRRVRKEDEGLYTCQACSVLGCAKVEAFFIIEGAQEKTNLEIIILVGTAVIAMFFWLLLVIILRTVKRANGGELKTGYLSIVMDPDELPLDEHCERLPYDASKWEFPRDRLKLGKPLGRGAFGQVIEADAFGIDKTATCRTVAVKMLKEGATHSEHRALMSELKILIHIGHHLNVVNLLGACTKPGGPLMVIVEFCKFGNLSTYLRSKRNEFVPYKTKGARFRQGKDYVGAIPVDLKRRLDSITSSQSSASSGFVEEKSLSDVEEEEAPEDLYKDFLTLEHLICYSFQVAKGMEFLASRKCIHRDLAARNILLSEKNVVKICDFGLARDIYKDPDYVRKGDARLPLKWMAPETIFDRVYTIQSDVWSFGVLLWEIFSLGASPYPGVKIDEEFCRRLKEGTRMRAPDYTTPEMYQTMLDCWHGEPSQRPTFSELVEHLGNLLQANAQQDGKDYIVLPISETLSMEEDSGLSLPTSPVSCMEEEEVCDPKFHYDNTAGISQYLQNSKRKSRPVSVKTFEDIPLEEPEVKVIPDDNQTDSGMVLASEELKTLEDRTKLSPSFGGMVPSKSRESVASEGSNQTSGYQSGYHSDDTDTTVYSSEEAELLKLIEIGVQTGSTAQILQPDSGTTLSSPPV
Method for VEGFR-2: The majority of signals detected by antiphosphotyrosine antibody were from EGFR because the enzyme preparation contained low impurities.
Prepare all the solutions using autoclaved, deionized water and analytical grade reagents. Prepare
and store all the reagents at room temperature (unless indicated otherwise). EDTA solution (0.5
M, pH 8.0): add 95 mL ultra-pure water to 14.612 g EDTA, adjust the pH to 8.0 using NaOH
solution, add 5 mL ultra-pure water; 1×Kinase Assay Buffer: add 25 mL HEPES solution (1 M),
water, adjust pH to 7.5 and constant volume to 500 mL using ultrapure water; 4×Stop solution (40
mM): Mix 0.8 mL of the foregoing EDTA solution, 1 mL 10×Detection Buffer and 8.2 mL ultra-
pure water; 1×Detection Buffer: Mix 1 mL 10×Detection Buffer with 9 mL water; 4×VEGFR
μM) was added to 624 μL 1×Kinase Assay Buffer and mixed; 4×ULight™-labeled JAK1
concentration 5 μM) was added to 576 μL 1×Kinase Assay Buffer and mixed; 4×ATP Solution
2×substrate/ATP Mix: 560 μL foregoing 4×ULight™-labeled JAK1 and 560 μL 4×ATP solution
and mixed (prepared before use). The assays used an ULight-labeled peptide substrate and a
Europium-W1024-labeled antiphosphotyrosine antibody. The VEGFR-2 was purchased from
Carna Biosciences, Inc. (New York, USA). The 384-well plates were obtained from PerkinElmer.
Compounds were dissolved in DMSO and diluted to 11 concentrations at a tripling rate from 2.500
5 μL 2×VEGFR-2 kinase solution (0.5 nM)
was added to 384-well plates homogeneous mixing and pre-reaction at room temperature for 30
min. Next, 2.5 μL 4×Ultra ULightTM-JAK-1(Tyr1023) Peptide (200 nM)/ATP (40 μM) was
added to the corresponding wells of a 384-well plate. Negative control: 2.5 μL/well 4×substrate/ATP mixture and 7.5 μL 1×kinase assay buffer in 384-well plate well. Positive control:
μL/well 2×VEGFR-2 kinase solution was added to the 384-well plate, The final concentration of DMSO in the mixing system was 4%. After incubation at room temperature and dark for 60 min, 5 μL 4×stop solution was added to corresponding wells to react for 5 min and then 5 μL 4×detection mix was added to the corresponding wells of a 384-well plate. The mixture was centrifugally mixed and stayed for 60 min at room temperature for color development. The plate
was read using an Envision plate reader. The inhibition rate (%) = (positive well reading-
compound well reading)/(positive well reading-negative well reading)×100. The corresponding IC50 values were calculated using GraphPad Prism 5.0.

For `COc1ccc(-c2nc(SCc3nc(-c4ccc(Cl)cc4)no3)[nH]c(=O)c2C#N)cc1` [Compound 10k, 2-(((3-(4-Chlorophenyl)-1,2,4-oxadiazol-5-yl)methyl)thio)-4-(4-methoxyphenyl)-6-oxo-1,6-dihydropyrimidine-5-carbonitrile], the viability (as a rule, a per cent measure of how many cells are alive, often set against a control) at 96 h, 50 µM in series [1] was found to be 90%. The half-inhibitory concentration (IC50) (usually the concentration at which inhibition is half-maximal) in the series on MCF-7 (breast cancer) is 0.02 ± 0.001 µM. For the same molecule, the “Potency relative to erlotinib, MCF-7” value in the series with MCF-7 (breast cancer) (more potent than erlotinib) was “twice as potent”. In the series on caspase-3, the “Caspase-3 Conc” value was found to be 590 ± 5 pg/mL; the “Caspase-3 Fold change” value is 9 fold and 9.00 fold. Further, in the series with p53, the p53 was 330 ± 2 pg/mL. On VEGFR-2, the midpoint of inhibition, the IC50, lay at 0.021 ± 0.001 µM.

In the case of `COc1ccc(-c2noc(CSc3nc(-c4ccc(OC)cc4)c(C#N)c(=O)[nH]3)n2)cc1` [Compound 10l, 2-(((3-(4-Methoxyphenyl)-1,2,4-oxadiazol-5-yl)methyl)thio)-4-(4-methoxyphenyl)-6-oxo-1,6-dihydropyrimidine-5-carbonitrile], the viability at 96 h, 50 µM in series [1] came to 91%. Also, the IC50 in the series on MCF-7 (breast cancer) is 0.022 ± 0.001 µM. Besides, in the series on caspase-3, the “Caspase-3 Conc” value was 530 ± 4 pg/mL; the “Caspase-3 Fold change” value is 8 fold and 8.00 fold. Besides, the p53 with p53 came to 285 ± 2 pg/mL. Also, at VEGFR-2, the midpoint of inhibition, the IC50, lay at 0.026 ± 0.001 µM.
